According to patent publication US11261190B2, “Dihydropyrimidine compounds and uses thereof in medicine” (SUNSHINE LAKE PHARMA CO., LTD., priority 2017, dated 2022):

Assays:
[1] = Cytotoxicity in HepG2.2.15 cells (CellTiter Glo); format: cell-based; conditions: human, highest concentration 150 μM
Description: Test 2: Cytotoxicity and Selectivity Index
Methods of Testing Cytotoxicity and Selectivity Index
The serial diluted compound was added to a 384 wells plate at 50 μL HepG2.2.15 cell per well (3000 cells per well), the highest final concentration in the experiment is 150 μM (200 fold dilution). The plate was cultured at 37° C. in an incubator with C02 for 4 days, and cytotoxicity of the compound was detected using CellTiter Glo agent.
The cytotoxicity of the compound was calculated using the following formulate, cytotoxicity (%)=100−(detection value/mean of DMSO control wells values×100). CC50 values were calculated by a four parametric nonlinear regression model using Graphpad Prism 5 software to manage concentration−cytotoxicity (%). […]

HBV = assay: Anti HBV activity in vitro, viral DNA from HepG2.2.15 cells quantified by qPCR; format: cell-based; conditions: Hepatitis B virus, qPCR of viral DNA in supernatant, read-out: EC50 against HBV replication
Description: Test 1: Test Method of EC50 of Anti HBV
HBV Cell Line and Culture Conditions
HepG2.2.15 (SELLS, PNAS, 1987 and SELLS, JV, 1988) chromosomes have an integrated complete HBV genome, and stably express viral RNA and viral protein. HepG2.2.15 cells can secrete mature HBV particles, HBsAg and HBeAg to medium. HepG2.2.15 cells were cultured in DMEM containing 10% fetal bovine serum, 100 U/mL penicillin, 100 U/mL streptomycin, 1% non essential amino acid, 1 mM sodium pyruvate and 300 µg/mL G418.
Viral particles DNA secreted from HepG2.2.15 cells can be quantified by qPCR, and the effect of the compound on viral replication can be detected.
Test of Anti HBV Activity In Vitro
8000 HepG 2.2.15 cells per well were seeded into a 96-well plate, the plate was cultured at 37° C. and 5% CO2 for 3 days till the cells grew to full wells. Old liquid medium can be removed and replaced with new medium (200 μL) on day 0.
Formulating the compound and treating the cells in the experiment of anti virus: the compound was dissolved in DMSO to a concentration of 30 mM, and then the compound solution was diluted with DMSO to a concentration of […], and then eight dilutions at 4 fold were performed, the highest concentration is 800 μM. The serial diluted compound was added to the above plate at 1 μL per well, the highest final concentration in the experiment is 4 μM (200 fold dilution). TDF (tenofovir dipiroxil fumarate, Selleck, Cat S1400) has a highest concentration of 4 μM as a positive control. 1 μL of DMSO was added in to the positive control well at a final concentration of 0.5%, TDF was added in to the positive control well at a final concentration of 1 μM.
Detection of Viral Genomic DNA by qPCR
Primer: HBV-For-202, […]; HBV-Rev-315, […]. Copies of virus can be calculated using a standard curve plotted by using plasmid containing HBV genome and using SYBR Premix Ex Taq II Takara DRR081S kit and 1 μL cell culture supernatant as a template. EC50 values of the compound on viral replication were calculated by a four parametric nonlinear regression model using Graphpad Prism 5 software to manage concentration—viral copy number.

Structure (SMILES) | CC50 at 4 days [1] [µM] | EC50 (HBV) [nM]
CCOC(=O)C1=C(CN2CCN3C(=O)N(c4ccc(CCC(=O)O)cc4)C[C@@H]3C2)NC(c2nccs2)=N[C@H]1c1ccc(F)cc1Cl [Example 23, 3-(4-((S)-7-(((R)-6-(2-chloro-4-fluorophenyl)-5-(ethoxycarbonyl)-2-(thiazol-2-yl)-3,6-dihydropyrimidin-4-yl)methyl)-3-oxohexahydroimidazo[1,5-a]pyrazin-2(3H)-yl)phenyl)prop ionic Acid] | > 150 | 7
COC(=O)C1=C(CN2CCN3C(=O)N(c4ccc(CCC(=O)O)cc4)C[C@@H]3C2)NC(c2nccs2)=N[C@H]1c1ccc(Cl)cc1Cl [Example 24, 3-(4-((S)-7-(((R)-6-(2,4-dichlorophenyl)-5-(methoxycarbonyl)-2-(thiazol-2-yl)-3,6-dihydropyrimidin-4-yl)methyl)-3-oxohexahydroimidazo[1,5-a]pyrazin-2 (3H)-yl)phenyl)propionic Acid] | > 150 | 4
COC(=O)CCc1ccc(N2C[C@@H]3CN(CC4=C(C(=O)OC)[C@H](c5ccc(F)cc5Cl)N=C(c5nccs5)N4)CCN3C2=O)cc1 [Example 25, (R)-methyl 4-(2-chloro-4-fluorophenyl)-6-(((S)-2-(4-(3-methoxy-3-oxopropyl)phenyl)-3-oxohexahydroimidazo[1,5-a]pyrazin-7(1H)-yl)methyl)-2-(thiazol-2-yl)-1,4-dihydropyrimidine-5-carboxylate] | > 150 | 5
CCOC(=O)C1=C(CN2CCN3C(=O)N(c4ccc(CC(=O)O)cc4)C[C@@H]3C2)NC(c2nccs2)=N[C@H]1c1ccc(F)cc1Br [Example 26, 2-(4-((S)-7-(((R)-6-(2-bromo-4-fluorophenyl)-5-(ethoxycarbonyl)-2-(thiazol-2-yl)-3,6-dihydropyrimidin-4-yl)methyl)-3-oxohexahydroimidazo[1,5-a]pyrazin-2(3H)-yl)phenyl)acetic Acid] | > 150 | 8
COC(=O)C1=C(CN2CCN3C(=O)N(c4ccc(CC(=O)O)cc4)C[C@@H]3C2)NC(c2nccs2)=N[C@H]1c1ccc(Cl)cc1Cl [Example 27, 2-(4-((S)-7-(((R)-6-(2,4-dichlorophenyl)-5-(methoxycarbonyl)-2-(thiazol-2-yl)-3,6-dihydropyrimidin-4-yl)methyl)-3-oxohexahydroimidazo[,5-a]pyrazin-2(3H)-yl)phenyl)acetic Acid] | > 150 | 7
CCOC(=O)C1=C(CN2CCN3C(=O)N(c4ccc(CC(C)(C)C(=O)O)cc4)C[C@@H]3C2)NC(c2nccs2)=N[C@H]1c1ccc(F)cc1Br [Example 28] | > 150 | 5
CCOC(=O)C1=C(CN2CCN3C(=O)N(c4ccc(CC(C)(C)C(=O)O)cc4)C[C@@H]3C2)NC(c2nccs2)=N[C@H]1c1ccc(F)cc1Cl [Example 29, 3-(4-((S)-7-(((R)-6-(2-chloro-4-fluorophenyl)-5-(ethoxycarbonyl)-2-(thiazol-2-yl)-3,6-dihydropyrimidin-4-yl)methyl)-3-oxohexahydroimidazo[1,5-a]pyrazin-2(3H)-yl)phenyl)-2,2-dimethylpropionic Acid] | > 150 | 6
COC(=O)C1=C(CN2CCN3C(=O)N(c4ccc(C(C)=O)cc4)C[C@@H]3C2)NC(c2nccs2)=N[C@H]1c1ccc(F)cc1Cl [Example 31, (R)-methyl 6-(((S)-2-(4-acetylphenyl)-3-oxohexahydroimidazo[1,5-a]pyrazin-7(1H)-yl)methyl)-4-(2-chloro-4-fluorophenyl)-2-(thiazol-2-yl)-1,4-dihydropyrimidine-5-carboxy late] | > 150 | 4
COC(=O)C1=C(CN2CCN3C(=O)N(c4ccc(C(C)=O)cc4F)C[C@@H]3C2)NC(c2nccs2)=N[C@H]1c1ccc(F)cc1Cl [Example 32, (R)-methyl 6-(((S)-2-(4-acetyl-2fluorophenyl)-3-oxohexahydroimidazo[1,5-a]pyrazin-7(1H)-yl)methyl)-4-(2-chloro-4-fluorophenyl)-2-(thiazol-2-yl)-1,4-dihydropyrimidine-5-carboxylate] | > 150 | 6
COC(=O)C1=C(CN2CCN3C(=O)N(c4ccc(C(C)(C)C(=O)O)cc4F)C[C@@H]3C2)NC(c2nccs2)=N[C@H]1c1ccc(F)cc1Cl [Example 33, 2-(4-((S)-7-(((R)-6-(2-chloro-4-fluorophenyl)-5-(methoxycarbonyl)-2-(thiazol-2-yl)-3,6-dihydropyrimidin-4-yl)methyl)-3-oxohexahydroimidazo[1,5-a]pyrazin-2(3H)-yl)-3-fluorophenyl)-2-methylpropionic Acid] | > 150 | 25
COC(=O)C1=C(CN2CCN3C(=O)N(c4ccc(CCC(=O)O)cc4F)C[C@@H]3C2)NC(c2nccs2)=N[C@H]1c1ccc(F)cc1Cl [Example 34, 3-(4-((S)-7-(((R)-6-(2-chloro-4-fluorophenyl)-5-(methoxycarbonyl)-2-(thiazol-2-yl)-3,6-dihydropyrimidin-4-yl)methyl)-3-oxohexahydroimidazo[1,5-a]pyrazin-2(3H)-yl)-3-fluorophenyl)propionic Acid] | > 150 | 16
COC(=O)C1=C(CN2CCN3C(=O)N(c4cccc(CCC(=O)O)c4)C[C@@H]3C2)NC(c2nccs2)=N[C@H]1c1ccc(F)cc1Cl [Example 37, 3-(3-((S)-7-(((R)-6-(2-chloro-4-fluorophenyl)-5-(methoxycarbonyl)-2-(thiazol-2-yl)-3,6-dihydropyrimidin-4-yl)methyl)-3-oxohexahydroimidazo[1,5-a]pyrazin-2(3H)-yl)phenyl)propionic Acid] | > 150 | 5
COC(=O)C1=C(CN2CCN3C(=O)N(c4cccc(C(C)(C)C(=O)O)c4)C[C@@H]3C2)NC(c2nccs2)=N[C@H]1c1ccc(F)cc1Cl [Example 38, 2-(3-((S)-7-(((R)-6-(2-chloro-4-fluorophenyl)-5-(methoxycarbonyl)-2-(thiazol-2-yl)-3,6-dihydropyrimidin-4-yl)methyl)-3-oxohexahydroimidazo[1,5-a]pyrazin-2(3H)-yl)phenyl)-2-methylpropionic Acid] | > 150 | 15
COC(=O)C1=C(CN2CCN3C(=O)N(c4cccc(CC(=O)O)c4)C[C@@H]3C2)NC(c2nccs2)=N[C@H]1c1ccc(F)cc1Cl [Example 39, 2-(3-((S)-7-(((R)-6-(2-chloro-4-fluorophenyl)-5-(methoxycarbonyl)-2-(thiazol-2-yl)-3,6-dihydropyrimidin-4-yl)methyl)-3-oxohexahydroimidazo[1,5-a]pyrazin-2(3H)-yl)phenyl) acetic Acid] | > 150 | 29
COC(=O)C1=C(CN2CCN3C(=O)N(c4ccc(OC(C)(C)C(=O)O)cc4)C[C@@H]3C2)NC(c2nccs2)=N[C@H]1c1ccc(F)cc1Cl [Example 40, 2-(4-((S)-7-(((R)-6-(2-chloro-4-fluorophenyl)-5-(methoxycarbonyl)-2-(thiazol-2-yl)-3,6-dihydropyrimidin-4-yl)methyl)-3-oxohexahydroimidazo[1,5-a]pyrazin-2(3H)-yl)phenoxy)-2-methylpropionic Acid] | > 150 | 71
COCC(C)(C)NC(=O)CCc1ccc(N2C[C@@H]3CN(CC4=C(C(=O)OC)[C@H](c5ccc(F)cc5Cl)N=C(c5nccs5)N4)CCN3C2=O)cc1 [Example 44, (R)-methyl 4-(2-chloro-4-fluorophenyl)-6-(((S)-2-(4-(3-((1-methoxy-2-methylpropan-2-yl)amino)-3-oxopropyl)phenyl)-3-oxohexahydroimidazo[1,5-a]pyrazin-7(1H)-yl)methyl)-2-(thiazol-2-yl)-1,4-dihydropyrimidine-5-carboxylate] | > 150 | 10
COC(=O)C1=C(CN2CCN3C(=O)N(c4ccc(CCC(=O)O)cc4)C[C@@H]3C2)NC(c2nccn2C)=NC1c1ccc(F)cc1Cl (stereo partly drawn) [Example 45, 3-(4-((8aS)-7-((-6-(2-chloro-4-fluorophenyl)-5-(methoxycarbonyl)-2-(1-methyl-1H-imidazol-2-yl)-3,6-dihydropyrimidin-4-yl)methyl)-3-oxohexahydroimidazo[1,5-a]pyrazin-2(3H)-yl)phenyl)propionic Acid] | > 150 | 8
